Molecules are shown by their SMILES. Active and inactive are the calls of the source. The rule behind the calls is not given here. Peptide text beside a SMILES is read from it.

One molecule from ChEMBL document CHEMBL5316324, “Discovery, Characterization, and Engineering of LvIC, an α4/4-Conotoxin That Selectively Blocks Rat α6/α3β4 Nicotinic Acetylcholine Receptors” (J Med Chem, 2023) can be followed below.

Assay [1] can be described thus: Inhibition of rat alpha6/alpha3 D152A mutant beta4 nAChR expressed in Stage V-VI Xenopus laevis Oocytes assessed as inhibition of acetylcholine-induced current in presence of acetylcholine by electrophysiological recording. It is filed as cell-based. The conditions noted are these: Oocyte.
Assay [2] is described as follows: Inhibition of rat alpha6/alpha3 E195A mutant beta4 nAChR expressed in Stage V-VI Xenopus laevis Oocytes assessed as inhibition of acetylcholine-induced current in presence of acetylcholine by electrophysiological recording. It is filed as cell-based. The conditions noted are these: Oocyte.
The target of assay [3] is Nicotinic acetylcholine receptor alpha6/alpha3/beta4 (Rattus norvegicus) (UniProt P04757+P12392+P43143). In words: Inhibition of rat alpha6/alpha3beta4 nAChR expressed in Stage V-VI Xenopus laevis Oocytes assessed as inhibition of acetylcholine-induced current at 10 uM in presence of acetylcholine by electrophysiological recording. It is filed as cell-based. To be noted: Oocyte.

For assay [4], the target named is Neuronal acetylcholine receptor; alpha3/beta4 (Rattus norvegicus) (UniProt P04757+P12392). The assay is described as follows: Inhibition of rat alpha3beta4 nAChR expressed in Stage V-VI Xenopus laevis Oocytes assessed as inhibition of acetylcholine-induced current at 10 uM in presence of acetylcholine by electrophysiological recording. It is filed as cell-based. To be noted: Oocyte.

Assay [5] addresses Neuronal acetylcholine receptor; alpha2/beta4 (Rattus norvegicus, UniProt P12389+P12392). In words: Inhibition of rat alpha2/beta4 nAChR expressed in Stage V-VI Xenopus laevis Oocytes assessed as inhibition of acetylcholine-induced current in presence of acetylcholine by electrophysiological recording. It is filed as cell-based, Oocyte.
In assay [6] the target is Nicotinic acetylcholine receptor alpha6/alpha3/beta4 (Rattus norvegicus, UniProt P04757+P12392+P43143). In words: Inhibition of rat alpha6/alpha3beta4 nAChR expressed in Stage V-VI Xenopus laevis Oocytes assessed as inhibition of acetylcholine-induced current in presence of acetylcholine by electrophysiological recording. It is filed as cell-based, Oocyte.
Nicotinic acetylcholine receptor alpha6/alpha3/beta4, sequence (P04757 whole entry): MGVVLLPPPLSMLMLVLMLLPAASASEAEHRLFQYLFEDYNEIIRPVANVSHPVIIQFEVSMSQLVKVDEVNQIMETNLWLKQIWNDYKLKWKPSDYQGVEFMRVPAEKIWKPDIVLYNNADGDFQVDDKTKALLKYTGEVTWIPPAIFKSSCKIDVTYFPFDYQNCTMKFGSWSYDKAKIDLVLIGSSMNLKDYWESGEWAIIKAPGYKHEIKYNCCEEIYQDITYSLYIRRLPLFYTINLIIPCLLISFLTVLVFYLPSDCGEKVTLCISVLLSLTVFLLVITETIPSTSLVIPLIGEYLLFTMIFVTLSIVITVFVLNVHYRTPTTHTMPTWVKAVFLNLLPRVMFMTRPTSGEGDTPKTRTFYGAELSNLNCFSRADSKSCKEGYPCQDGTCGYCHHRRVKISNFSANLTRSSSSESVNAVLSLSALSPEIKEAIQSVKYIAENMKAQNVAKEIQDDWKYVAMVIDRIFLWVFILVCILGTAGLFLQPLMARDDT
Nicotinic acetylcholine receptor alpha6/alpha3/beta4, sequence (P12392 whole entry): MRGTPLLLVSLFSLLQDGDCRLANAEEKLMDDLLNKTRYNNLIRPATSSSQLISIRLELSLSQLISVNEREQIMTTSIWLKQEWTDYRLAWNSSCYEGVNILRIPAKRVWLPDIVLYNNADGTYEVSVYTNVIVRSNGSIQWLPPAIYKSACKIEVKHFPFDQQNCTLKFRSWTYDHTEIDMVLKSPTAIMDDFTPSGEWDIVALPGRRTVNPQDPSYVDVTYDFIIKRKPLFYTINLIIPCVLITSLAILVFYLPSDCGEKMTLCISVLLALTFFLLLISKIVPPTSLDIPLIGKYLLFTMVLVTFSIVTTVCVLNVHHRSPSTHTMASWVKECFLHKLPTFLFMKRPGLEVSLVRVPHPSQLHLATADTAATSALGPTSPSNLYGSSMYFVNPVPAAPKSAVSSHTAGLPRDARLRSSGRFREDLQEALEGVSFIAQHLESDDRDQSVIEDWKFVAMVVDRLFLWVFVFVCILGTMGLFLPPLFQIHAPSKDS
Nicotinic acetylcholine receptor alpha6/alpha3/beta4, sequence (P43143 whole entry): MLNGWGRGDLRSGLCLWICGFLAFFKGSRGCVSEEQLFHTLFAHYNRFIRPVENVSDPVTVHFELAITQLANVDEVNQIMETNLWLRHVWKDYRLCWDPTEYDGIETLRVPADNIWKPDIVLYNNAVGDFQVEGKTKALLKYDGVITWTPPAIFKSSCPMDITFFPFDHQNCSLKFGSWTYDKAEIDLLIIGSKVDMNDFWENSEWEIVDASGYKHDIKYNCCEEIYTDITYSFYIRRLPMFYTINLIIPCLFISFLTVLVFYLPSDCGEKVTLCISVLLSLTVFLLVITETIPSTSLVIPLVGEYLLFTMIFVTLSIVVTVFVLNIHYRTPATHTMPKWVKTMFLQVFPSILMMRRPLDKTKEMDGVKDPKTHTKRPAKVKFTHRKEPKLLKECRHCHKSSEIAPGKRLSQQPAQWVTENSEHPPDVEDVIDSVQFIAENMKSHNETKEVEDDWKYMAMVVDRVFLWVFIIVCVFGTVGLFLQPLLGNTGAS
Assay [7] addresses Nicotinic acetylcholine receptor alpha1/beta1/epsilon/delta (Mus musculus, UniProt P02716+P04756+P09690+P20782). The assay is described as follows: Inhibition of mouse alpha1/beta1deltaepsilon nAChR expressed in Stage V-VI Xenopus laevis Oocytes assessed as inhibition of acetylcholine-induced current in presence of acetylcholine by electrophysiological recording. It is filed as cell-based, Oocyte.

The target of assay [8] is Neuronal acetylcholine receptor; alpha2/beta4 (Rattus norvegicus) (UniProt P12389+P12392). In words: Inhibition of rat alpha2/beta4 nAChR expressed in Stage V-VI Xenopus laevis Oocytes assessed as inhibition of acetylcholine-induced current at 10 uM in presence of acetylcholine by electrophysiological recording relative to control. To be noted: Oocyte. It is filed as cell-based.

For assay [9], the target named is Neuronal acetylcholine receptor; alpha3/beta2 (Rattus norvegicus) (UniProt P04757+P12390). In words: Inhibition of rat alpha3/beta2 nAChR expressed in Stage V-VI Xenopus laevis Oocytes assessed as inhibition of acetylcholine-induced current at 10 uM in presence of acetylcholine by electrophysiological recording relative to control. It is filed as cell-based. The conditions noted are these: Oocyte.

Assay [10] concerns the target Neuronal acetylcholine receptor; alpha4/beta2 (Rattus norvegicus) (UniProt P09483+P12390). The assay is described as follows: Inhibition of rat alpha4/beta2 nAChR expressed in Stage V-VI Xenopus laevis Oocytes assessed as inhibition of acetylcholine-induced current at 10 uM in presence of acetylcholine by electrophysiological recording relative to control. To be noted: Oocyte. It is filed as cell-based.

Assay [11] concerns the target Nicotinic acetylcholine receptor alpha6/alpha3/beta2/beta3 (Rattus norvegicus) (UniProt P04757+P12390+P12391+P43143). In words: Inhibition of rat alpha6/alpha3beta2beta3 nAChR expressed in Stage V-VI Xenopus laevis Oocytes assessed as inhibition of acetylcholine-induced current at 10 uM in presence of acetylcholine by electrophysiological recording relative to control. It is filed as cell-based. The conditions noted are these: Oocyte.

The test system of assay [12] is Oocyte. The assay is described as follows: Inhibition of rat alpha6/alpha3 D152A mutant beta4 nAChR expressed in Stage V-VI Xenopus laevis Oocytes assessed as acetylcholine-induced current response at 1 uM in presence of 100 uM acetylcholine by electrophysiological recording relative to control. It is filed as cell-based. Also noted: scale not given: the % may be the effect or the level left.

Assay [13] is filed under the species Rattus norvegicus. In words: Inhibition of rat alpha6/alpha3 E195A mutant beta4 nAChR expressed in Stage V-VI Xenopus laevis Oocytes assessed as acetylcholine-induced current response at 1 uM in presence of 100 uM acetylcholine by electrophysiological recording relative to control. It is filed as cell-based.
The test system of assay [14] is Oocyte. The assay is described as follows: Inhibition of rat alpha6/alpha3 E195A mutant beta4 nAChR expressed in Stage V-VI Xenopus laevis Oocytes assessed as acetylcholine-induced current response at 100 nM in presence of 100 uM acetylcholine by electrophysiological recording relative to control. It is filed as cell-based.
The test system of assay [15] is Oocyte. In words: Inhibition of rat alpha6/alpha3 D152A mutant beta4 nAChR expressed in Stage V-VI Xenopus laevis Oocytes assessed as inhibition of acetylcholine-induced current by measuring recovery time at 10 uM preincubated with compound for 5 mins followed by washout in presence of acetylcholine by electrophysiological recording. It is filed as cell-based.
For assay [16], the system named is Oocyte. The assay is described as follows: Inhibition of rat alpha6/alpha3 T59K mutant beta4 nAChR expressed in Stage V-VI Xenopus laevis Oocytes assessed as inhibition of acetylcholine-induced current by measuring recovery time at 10 uM preincubated with compound for 5 mins followed by washout in presence of acetylcholine by electrophysiological recording. It is filed as cell-based.

The subject of assay [17] is Oocyte. The assay is described as follows: Inhibition of rat alpha6/alpha3 E34M mutant beta4 nAChR expressed in Stage V-VI Xenopus laevis Oocytes assessed as inhibition of acetylcholine-induced current by measuring recovery at 10 uM preincubated with compound for 5 mins followed by washout in presence of acetylcholine by electrophysiological recording. On the set-up: scale not given: the % may be the effect or the level left. It is filed as cell-based.

The test system of assay [18] is Oocyte. In words: Inhibition of rat alpha6/alpha3 E34M mutant beta4 nAChR expressed in Stage V-VI Xenopus laevis Oocytes assessed as inhibition of acetylcholine-induced current by measuring recovery at 10 uM preincubated with compound for 5 mins followed by measured after 20 mins washout by electrophysiological recording. It is filed as cell-based. Also noted: scale not given: the % may be the effect or the level left. To be noted: time 25.0 min.

Assay [19] can be described thus: Inhibition of rat alpha6/alpha3beta4 I166S mutant nAChR expressed in Stage V-VI Xenopus laevis Oocytes assessed as inhibition of acetylcholine-induced current in presence of acetylcholine by electrophysiological recording. It is filed as cell-based. To be noted: Oocyte.
The species named for assay [20] is Rattus norvegicus. The assay is described as follows: Selectivity index, ratio of IC50 for rat alpha6/alpha3 D152A mutant beta4 nAChR expressed in Stage V-VI Xenopus laevis oocytes to IC50 for rat alpha6/alpha3beta4 nAChR expressed in Stage V-VI Xenopus laevis Oocytes by electrophysiological recording. It is filed as cell-based.
The species named for assay [21] is Rattus norvegicus. The assay is described as follows: Selectivity index, ratio of IC50 for rat alpha6/alpha3 E195A mutant beta4 nAChR expressed in Stage V-VI Xenopus laevis oocytes to IC50 for rat alpha6/alpha3beta4 nAChR expressed in Stage V-VI Xenopus laevis Oocytes by electrophysiological recording. It is filed as cell-based.
The species named for assay [22] is Rattus norvegicus. In words: Selectivity index, ratio of IC50 for rat alpha6/alpha3beta4 E34M mutant nAChR expressed in Stage V-VI Xenopus laevis oocytes to IC50 for rat alpha6/alpha3beta4 nAChR expressed in Stage V-VI Xenopus laevis Oocytes by electrophysiological recording. It is filed as cell-based.
Assay [23] is filed under the species Rattus norvegicus. In words: Selectivity index, ratio of IC50 for rat alpha6/alpha3beta4 D161A mutant nAChR expressed in Stage V-VI Xenopus laevis oocytes to IC50 for rat alpha6/alpha3beta4 nAChR expressed in Stage V-VI Xenopus laevis Oocytes by electrophysiological recording. It is filed as cell-based.
Assay [24] is filed under the species Rattus norvegicus. In words: Selectivity index, ratio of IC50 for rat alpha6/alpha3beta4 1166S mutant nAChR expressed in Stage V-VI Xenopus laevis oocytes to IC50 for rat alpha6/alpha3beta4 nAChR expressed in Stage V-VI Xenopus laevis Oocytes by electrophysiological recording. It is filed as cell-based.

Nicotinic acetylcholine receptor alpha1/beta1/epsilon/delta, sequence (P04756 whole entry): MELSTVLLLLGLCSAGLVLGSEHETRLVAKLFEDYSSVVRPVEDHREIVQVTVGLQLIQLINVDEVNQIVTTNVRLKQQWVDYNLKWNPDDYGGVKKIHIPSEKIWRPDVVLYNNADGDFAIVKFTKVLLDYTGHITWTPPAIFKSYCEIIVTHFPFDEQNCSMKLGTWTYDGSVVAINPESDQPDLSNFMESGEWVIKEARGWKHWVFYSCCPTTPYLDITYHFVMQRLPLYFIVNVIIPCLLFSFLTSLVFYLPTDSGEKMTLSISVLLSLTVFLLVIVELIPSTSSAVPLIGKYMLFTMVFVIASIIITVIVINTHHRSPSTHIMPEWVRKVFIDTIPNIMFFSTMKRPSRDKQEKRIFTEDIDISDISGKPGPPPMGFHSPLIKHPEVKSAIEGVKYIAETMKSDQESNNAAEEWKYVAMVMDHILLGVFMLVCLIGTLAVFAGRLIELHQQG
Nicotinic acetylcholine receptor alpha1/beta1/epsilon/delta, sequence (P09690 whole entry): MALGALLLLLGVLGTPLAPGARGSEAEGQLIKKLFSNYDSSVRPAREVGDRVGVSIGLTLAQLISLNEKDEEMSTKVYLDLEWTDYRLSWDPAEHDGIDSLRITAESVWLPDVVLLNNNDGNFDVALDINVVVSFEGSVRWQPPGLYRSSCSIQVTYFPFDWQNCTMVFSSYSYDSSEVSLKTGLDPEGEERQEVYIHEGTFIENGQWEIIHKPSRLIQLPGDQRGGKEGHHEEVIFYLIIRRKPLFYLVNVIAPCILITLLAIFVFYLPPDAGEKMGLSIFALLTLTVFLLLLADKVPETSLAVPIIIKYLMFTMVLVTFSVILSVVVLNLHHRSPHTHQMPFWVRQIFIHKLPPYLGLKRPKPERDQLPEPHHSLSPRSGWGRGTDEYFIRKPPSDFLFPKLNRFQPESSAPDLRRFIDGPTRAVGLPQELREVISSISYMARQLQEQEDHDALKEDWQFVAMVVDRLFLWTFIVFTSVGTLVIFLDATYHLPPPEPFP
Nicotinic acetylcholine receptor alpha1/beta1/epsilon/delta, sequence (P02716 whole entry): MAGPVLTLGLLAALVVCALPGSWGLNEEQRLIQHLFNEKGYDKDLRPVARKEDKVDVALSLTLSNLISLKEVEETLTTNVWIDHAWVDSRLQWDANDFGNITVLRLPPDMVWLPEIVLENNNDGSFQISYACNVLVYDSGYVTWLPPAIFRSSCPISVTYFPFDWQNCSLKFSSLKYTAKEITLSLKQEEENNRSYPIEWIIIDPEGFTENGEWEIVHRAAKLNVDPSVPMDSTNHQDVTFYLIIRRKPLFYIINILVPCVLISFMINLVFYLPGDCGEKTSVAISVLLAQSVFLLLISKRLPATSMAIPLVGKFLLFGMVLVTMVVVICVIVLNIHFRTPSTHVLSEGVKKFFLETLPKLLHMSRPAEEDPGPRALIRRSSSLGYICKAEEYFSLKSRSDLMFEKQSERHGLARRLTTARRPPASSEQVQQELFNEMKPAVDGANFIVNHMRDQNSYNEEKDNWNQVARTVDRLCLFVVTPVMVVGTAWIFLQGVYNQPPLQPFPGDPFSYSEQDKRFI
Nicotinic acetylcholine receptor alpha1/beta1/epsilon/delta, sequence (P20782 whole entry): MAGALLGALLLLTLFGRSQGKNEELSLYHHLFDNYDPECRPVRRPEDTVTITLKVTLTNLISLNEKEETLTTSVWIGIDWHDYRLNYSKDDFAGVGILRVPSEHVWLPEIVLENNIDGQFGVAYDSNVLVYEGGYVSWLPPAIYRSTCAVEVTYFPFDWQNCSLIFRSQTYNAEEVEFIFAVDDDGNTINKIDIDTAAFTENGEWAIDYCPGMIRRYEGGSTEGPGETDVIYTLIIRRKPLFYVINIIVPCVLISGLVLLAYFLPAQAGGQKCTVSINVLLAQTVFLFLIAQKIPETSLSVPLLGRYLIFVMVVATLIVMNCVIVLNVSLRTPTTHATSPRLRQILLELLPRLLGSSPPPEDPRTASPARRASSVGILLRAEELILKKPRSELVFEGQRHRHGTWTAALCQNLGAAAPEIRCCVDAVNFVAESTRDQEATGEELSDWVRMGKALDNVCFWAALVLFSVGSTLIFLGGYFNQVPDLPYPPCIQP
Neuronal acetylcholine receptor; alpha2/beta4, sequence (P12389 whole entry): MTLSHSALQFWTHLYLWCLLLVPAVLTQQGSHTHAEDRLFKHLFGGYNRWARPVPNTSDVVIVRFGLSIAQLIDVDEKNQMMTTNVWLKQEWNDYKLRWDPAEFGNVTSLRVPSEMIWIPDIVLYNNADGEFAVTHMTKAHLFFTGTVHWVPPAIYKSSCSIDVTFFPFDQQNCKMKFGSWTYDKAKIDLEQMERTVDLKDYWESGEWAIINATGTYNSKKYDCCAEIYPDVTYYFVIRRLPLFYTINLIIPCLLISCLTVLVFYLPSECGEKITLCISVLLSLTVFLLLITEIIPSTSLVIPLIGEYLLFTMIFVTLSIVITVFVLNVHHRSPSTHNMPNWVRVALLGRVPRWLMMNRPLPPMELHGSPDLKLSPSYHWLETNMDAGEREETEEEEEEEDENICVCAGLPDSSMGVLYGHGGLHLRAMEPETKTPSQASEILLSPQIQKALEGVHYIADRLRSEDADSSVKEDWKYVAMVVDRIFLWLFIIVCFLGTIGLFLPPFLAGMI
Neuronal acetylcholine receptor; alpha2/beta4, sequence (P12392 whole entry): as the sequence (P12392 whole entry) above

As to `CC(C)[C@H](NC(=O)[C@@H]1CCCN1C(=O)[C@H](CC(N)=O)NC(=O)[C@H](C)NC(=O)[C@H](CS)NC(=O)[C@H](CS)NC(=O)[C@@H](N)CCCNC(=N)N)C(=O)N[C@@H](CS)C(=O)N[C@@H](CC(N)=O)C(=O)NCC(=O)N[C@@H](CCCCN)C(=O)N[C@@H](Cc1cnc[nH]1)C(=O)N[C@@H](CS)C(N)=O` (H-RCCANPVCNGKHC-NH2), the 50% inhibitory concentration (IC50) is 0.47 µM in assay [1]; 0.959 µM in assay [2]; above 10 µM in assay [5]; 0.019 µM in [6]; above 10 µM in [7]; 0.0508 µM in assay [19]. Moreover, the inhibition entry in assay [3] was “Active”. Further, the inhibition entry in assay [4] is “inactive”. In addition, the inhibition in assay [8] is below 50%; in assay [9], below 50%; in [10] it was below 50%; in assay [11] it was below 50%; in the assay filed under Rattus norvegicus [13], 49.3%; in the assay on Oocyte [14] it was 9.11%. Besides, the figures for the Activity in the assay on Oocyte [12], with Oocyte [17] and in the assay with Oocyte [18] were 63.8%, 70% and 66.3%, respectively. Further, the TIME with Oocyte [15] was found to be 0.0667 h; with Oocyte [16] it was 0.0333 h. The Ratio IC50 in the assay filed under Rattus norvegicus [20] turned out to be 24.7; in the assay filed under Rattus norvegicus [21], 50.5; in the assay filed under Rattus norvegicus [22], 0.97; in the assay filed under Rattus norvegicus [23], 3.3; in the assay listed under Rattus norvegicus [24], 2.7.

As a reminder, the IC50 is the point on the concentration scale where inhibition reaches its midpoint. The inhibition is how much of the control response was suppressed.
